pIC50: −log10 of the molar value.

The experiment concerns the target T1, Polyphenol oxidase 2 (Agaricus bisporus, UniProt O42713).
T1 sequence (O42713 whole entry): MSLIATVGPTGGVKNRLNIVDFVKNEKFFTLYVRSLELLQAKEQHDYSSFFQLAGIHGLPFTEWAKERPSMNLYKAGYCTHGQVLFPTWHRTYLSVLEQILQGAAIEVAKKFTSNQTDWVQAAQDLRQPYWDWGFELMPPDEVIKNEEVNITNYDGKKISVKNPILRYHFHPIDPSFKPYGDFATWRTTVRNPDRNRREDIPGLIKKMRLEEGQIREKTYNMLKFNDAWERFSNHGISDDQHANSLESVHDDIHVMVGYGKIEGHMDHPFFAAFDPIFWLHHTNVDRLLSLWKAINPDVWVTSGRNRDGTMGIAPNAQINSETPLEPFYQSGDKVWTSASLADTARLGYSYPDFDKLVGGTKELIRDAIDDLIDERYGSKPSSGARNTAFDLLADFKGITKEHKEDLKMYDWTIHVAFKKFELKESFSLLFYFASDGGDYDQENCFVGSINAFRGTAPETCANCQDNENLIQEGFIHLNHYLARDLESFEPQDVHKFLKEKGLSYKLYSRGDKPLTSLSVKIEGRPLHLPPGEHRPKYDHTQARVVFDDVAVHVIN
The experiment can be described thus: Inhibition of mushroom tyrosinase.
The compound `COC(=O)C1C2=Nc3c(O)cccc3[C@]23CCN2C[C@@H](C(C)=O)[C@H]1C[C@@H]23` (stereo not given in full) [Alpneumine D] showed a pIC50 below 4.00.

With `COC(=O)C1C2=Nc3ccccc3[C@]23CC[N+]2([O-])C[C@H](C(C)=O)[C@H]1C[C@H]32` (stereo not given in full) [Alpneumine C], the pIC50 was below 4.00.

Regarding `COC(=O)C1C2=Nc3c(O)cccc3[C@]23CCN2C[C@H](C(C)=O)[C@H]1C[C@@H]23` (stereo not given in full) [Alpneumine B], the negative-log IC50 (pIC50) is below 4.00.

`COC(=O)C1C2=Nc3ccccc3[C@]23CCN2C[C@@H](C(C)=O)[C@H]1C[C@@H]23` (stereo not given in full) [Alpneumine E]: the pIC50 is below 4.00.

Take `COC(=O)C1C2=Nc3c(O)cccc3[C@]23CC[N+]2([O-])C[C@H](C(C)=O)[C@H]1C[C@H]32` (stereo not given in full) [Alpneumine A]: the negative-log IC50 (pIC50) is below 4.00.

For orientation: pIC50 means the negative decadic logarithm of the IC50, by convention in mol/L. Higher therefore signals a small IC50.

These data come from BindingDB's records for doi:10.1016/j.bmc.2010.04.086 (Hoshi University, 2010).
